Reference: ChEMBL document CHEMBL4052785, “Discovery of (R)-5-(benzo[d][1,3]dioxol-5-yl)-7-((1-(vinylsulfonyl)pyrrolidin-2-yl)methyl)-7H-pyrrolo[2,3-d]pyrimidin-4-amine (B6) as a potent Bmx inhibitor for the treatment of NSCLC” (Bioorg Med Chem Lett, 2017)

How the values were obtained:
[1] = biological target: Protein-tyrosine kinase 6 (Homo sapiens, UniProt Q13882); assay: Inhibition of recombinant human full length N-terminal His6-tagged BRK expressed in baculovirus Sf21 insect cells preincubated for 5 mins followed by substrate addition after 30 to 60 mins in presence of ATP by fluorescence assay
Homo sapiens [2] = species on record: Homo sapiens; assay: Selectivity ratio of IC50 for recombinant human N-terminal His6-tagged FMS (538 to end residues) to IC50 for human full length N-terminal His6-tagged BMX
Homo sapiens [3] = species on record: Homo sapiens; assay: Selectivity ratio of IC50 for BLK (unknown origin) to IC50 for human full length N-terminal His6-tagged BMX
Homo sapiens [4] = species on record: Homo sapiens; assay: Selectivity ratio of IC50 for recombinant human full length N-terminal His6-tagged SYK to IC50 for human full length N-terminal His6-tagged BMX
Homo sapiens [5] = species on record: Homo sapiens; assay: Selectivity ratio of IC50 for recombinant human full length N-terminal His6-tagged SRC to IC50 for human full length N-terminal His6-tagged BMX
Homo sapiens [6] = species on record: Homo sapiens; assay: Selectivity ratio of IC50 for recombinant human N-terminal His6-tagged FGR (2 to end residues) to IC50 for human full length N-terminal His6-tagged BMX
NCI-H1975 = assay: Antitumor activity against human NCI-H1975 cells xenografted in nude mouse assessed as tumor growth inhibition at 25 mg/kg administered via oral gavage qd measured every 2 days up to 18 days relative to control; type: functional; details: read-out: TGI
[7] = biological target: Tyrosine-protein kinase Fgr (Homo sapiens, UniProt P09769); assay: Inhibition of recombinant human N-terminal His6-tagged FGR (2 to end residues) expressed in baculovirus Sf21 insect cells preincubated for 5 mins followed by substrate addition after 30 to 60 mins in presence of ATP by fluorescence assay
[8] = biological target: Tyrosine-protein kinase BTK (Homo sapiens, UniProt Q06187); assay: Inhibition of recombinant human full length N-terminal His6-tagged BTK expressed in baculovirus Sf21 insect cells preincubated for 5 mins followed by LSNLYHQGKFLQT substrate addition after 30 to 60 mins in presence of ATP by fluorescence assay
[9] = biological target: Cytoplasmic tyrosine-protein kinase BMX (Homo sapiens, UniProt P51813); assay: Inhibition of recombinant human full length N-terminal His6-tagged BMX expressed in Sf21 cells preincubated for 5 mins followed by biotinyl-beta Abeta Abeta AEEEPQYEEIPIYLELLP substrate addition after 30 to 60 mins in presence of ATP by fluorescence assay
Homo sapiens [10] = species on record: Homo sapiens; assay: Selectivity ratio of IC50 for recombinant human N-terminal GST-tagged RET (658 to end residues) to IC50 for human full length N-terminal His6-tagged BMX
Homo sapiens [11] = species on record: Homo sapiens; assay: Selectivity ratio of IC50 for human JAK1 to IC50 for human full length N-terminal His6-tagged BMX
Mus musculus = assay: Toxicity in nude mouse xenografted with human NCI-H1975 cells assessed as body weight loss at 25 mg/kg administered qd via oral gavage for 18 days measured on day 14; type: organism-based; details: in vivo, 432 h
Homo sapiens [12] = species on record: Homo sapiens; assay: Selectivity ratio of IC50 for recombinant human N-terminal GST-tagged MKK7beta (2 to end residues) to IC50 for human full length N-terminal His6-tagged BMX
Homo sapiens [13] = species on record: Homo sapiens; assay: Selectivity ratio of IC50 for recombinant human full length N-terminal His6-tagged YES to IC50 for human full length N-terminal His6-tagged BMX
[14] = biological target: Tyrosine-protein kinase Fer (Homo sapiens, UniProt P16591); assay: Inhibition of recombinant human N-terminal His6-tagged FER (541 to end residues) expressed in baculovirus Sf21 insect cells preincubated for 5 mins followed by substrate addition after 30 to 60 mins in presence of ATP by fluorescence assay
[15] = biological target: Tyrosine-protein kinase Blk (Homo sapiens, UniProt P51451); assay: Inhibition of BLK (unknown origin) preincubated for 5 mins followed by substrate addition after 30 to 60 mins in presence of ATP by fluorescence assay
A549 = assay: Antiproliferative activity against human A549 cells harboring wild type EGFR after 72 hrs by MTT assay; type: functional, cell-based; details: A549, 72 h
[16] = biological target: Tyrosine-protein kinase Fyn (Homo sapiens, UniProt P06241); assay: Inhibition of recombinant human full length N-terminal His6-tagged FYN expressed in baculovirus Sf21 insect cells preincubated for 5 mins followed by biotinyl-beta Abeta Abeta AYQAEENTYDEYEN substrate addition after 30 to 60 mins in presence of ATP by fluorescence assay
[17] = biological target: Receptor-type tyrosine-protein kinase FLT3 (Homo sapiens, UniProt P36888); assay: Inhibition of recombinant human N-terminal GST-tagged FLT3 (564 to end residues) expressed in expressed in Sf21 cells preincubated for 5 mins followed by substrate addition after 30 to 60 mins in presence of ATP by fluorescence assay
Homo sapiens [18] = species on record: Homo sapiens; assay: Selectivity ratio of IC50 for recombinant human N-terminal His6-tagged HCK (230 to 497 residues) to IC50 for human full length N-terminal His6-tagged BMX
[19] = biological target: Serine/threonine-protein kinase Nek2 (Homo sapiens, UniProt P51955); assay: Inhibition of recombinant human full length N-terminal His6-tagged NEK2 expressed in baculovirus Sf21 insect cells preincubated for 5 mins followed by substrate addition after 30 to 60 mins in presence of ATP by fluorescence assay
[20] = biological target: Tyrosine-protein kinase ABL1 (Homo sapiens, UniProt P00519); assay: Inhibition of recombinant human N-terminal His6-tagged ABL (27 to end residues) expressed in baculovirus Sf21 insect cells preincubated for 5 mins followed by substrate addition after 30 to 60 mins in presence of ATP by fluorescence assay
Homo sapiens [21] = species on record: Homo sapiens; assay: Selectivity ratio of IC50 for recombinant human full length N-terminal His6-tagged BRK to IC50 for human full length N-terminal His6-tagged BMX
[22] = biological target: Tyrosine-protein kinase JAK1 (Homo sapiens, UniProt P23458); assay: Inhibition of human JAK1 expressed in baculovirus in Sf21 insect cells preincubated for 5 mins followed by substrate addition after 30 to 60 mins in presence of ATP by fluorescence assay
Homo sapiens [23] = species on record: Homo sapiens; assay: Selectivity ratio of IC50 for recombinant human C-terminal His6-tagged JAK2 (808 to end residues) to IC50 for human full length N-terminal His6-tagged BMX
[24] = biological target: Dual specificity mitogen-activated protein kinase kinase 7 (Homo sapiens, UniProt O14733); assay: Inhibition of recombinant human N-terminal GST-tagged MKK7beta (2 to end residues) expressed in Escherichia coli preincubated for 5 mins followed by substrate addition after 30 to 60 mins in presence of ATP by fluorescence assay
Homo sapiens [25] = species on record: Homo sapiens; assay: Selectivity ratio of IC50 for recombinant human full length N-terminal His6-tagged FYN to IC50 for human full length N-terminal His6-tagged BMX
[26] = biological target: Tyrosine-protein kinase JAK2 (Homo sapiens, UniProt O60674); assay: Inhibition of recombinant human C-terminal His6-tagged JAK2 (808 to end residues) expressed in baculovirus Sf21 insect cells preincubated for 5 mins followed by substrate addition after 30 to 60 mins in presence of ATP by fluorescence assay
Homo sapiens [27] = species on record: Homo sapiens; assay: Selectivity ratio of IC50 for recombinant human N-terminal His6-tagged PLK1 to IC50 for human full length N-terminal His6-tagged BMX

Sequence of Tyrosine-protein kinase ABL1 (P00519 whole entry): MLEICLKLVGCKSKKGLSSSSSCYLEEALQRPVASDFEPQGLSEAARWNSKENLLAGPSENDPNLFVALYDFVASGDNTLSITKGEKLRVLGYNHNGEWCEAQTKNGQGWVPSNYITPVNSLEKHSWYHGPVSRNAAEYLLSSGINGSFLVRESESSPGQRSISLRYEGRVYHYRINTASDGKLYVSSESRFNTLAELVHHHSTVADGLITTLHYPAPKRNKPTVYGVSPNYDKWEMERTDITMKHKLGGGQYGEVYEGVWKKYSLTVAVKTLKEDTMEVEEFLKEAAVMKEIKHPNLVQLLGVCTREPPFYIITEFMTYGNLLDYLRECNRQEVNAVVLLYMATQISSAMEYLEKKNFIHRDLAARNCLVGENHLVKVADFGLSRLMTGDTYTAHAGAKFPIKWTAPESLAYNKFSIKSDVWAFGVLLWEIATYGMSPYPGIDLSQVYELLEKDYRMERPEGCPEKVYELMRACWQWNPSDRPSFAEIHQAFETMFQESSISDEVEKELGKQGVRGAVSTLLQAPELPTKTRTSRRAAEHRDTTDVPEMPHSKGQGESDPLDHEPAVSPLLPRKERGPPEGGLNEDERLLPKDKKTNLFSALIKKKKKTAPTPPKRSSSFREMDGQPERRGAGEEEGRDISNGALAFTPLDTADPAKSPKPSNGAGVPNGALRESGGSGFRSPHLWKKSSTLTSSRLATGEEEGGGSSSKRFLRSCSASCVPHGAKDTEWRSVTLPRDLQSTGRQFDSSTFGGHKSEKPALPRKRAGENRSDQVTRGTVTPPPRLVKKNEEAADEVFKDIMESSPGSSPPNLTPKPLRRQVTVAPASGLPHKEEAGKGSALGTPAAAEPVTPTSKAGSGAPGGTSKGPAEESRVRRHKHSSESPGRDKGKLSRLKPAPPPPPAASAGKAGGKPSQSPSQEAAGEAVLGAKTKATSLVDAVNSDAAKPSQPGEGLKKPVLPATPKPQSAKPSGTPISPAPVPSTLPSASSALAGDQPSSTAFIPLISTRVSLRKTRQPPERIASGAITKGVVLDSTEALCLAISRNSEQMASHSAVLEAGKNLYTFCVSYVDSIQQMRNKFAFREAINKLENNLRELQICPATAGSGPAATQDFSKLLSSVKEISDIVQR
Sequence of Tyrosine-protein kinase Blk (P51451 whole entry): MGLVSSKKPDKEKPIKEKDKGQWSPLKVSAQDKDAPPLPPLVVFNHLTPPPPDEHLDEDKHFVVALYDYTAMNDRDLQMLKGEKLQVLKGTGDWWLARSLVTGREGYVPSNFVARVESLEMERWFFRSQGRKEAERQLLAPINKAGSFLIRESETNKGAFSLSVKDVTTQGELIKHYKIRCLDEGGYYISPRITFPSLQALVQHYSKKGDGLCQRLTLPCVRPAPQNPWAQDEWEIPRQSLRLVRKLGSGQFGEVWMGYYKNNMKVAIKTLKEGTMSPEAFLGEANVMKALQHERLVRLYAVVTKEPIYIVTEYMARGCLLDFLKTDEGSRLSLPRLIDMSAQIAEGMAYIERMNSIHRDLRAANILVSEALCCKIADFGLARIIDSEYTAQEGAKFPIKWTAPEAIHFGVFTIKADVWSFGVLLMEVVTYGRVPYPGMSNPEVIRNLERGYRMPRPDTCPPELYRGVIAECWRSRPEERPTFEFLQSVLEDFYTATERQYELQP
Sequence of Tyrosine-protein kinase Fgr (P09769 whole entry): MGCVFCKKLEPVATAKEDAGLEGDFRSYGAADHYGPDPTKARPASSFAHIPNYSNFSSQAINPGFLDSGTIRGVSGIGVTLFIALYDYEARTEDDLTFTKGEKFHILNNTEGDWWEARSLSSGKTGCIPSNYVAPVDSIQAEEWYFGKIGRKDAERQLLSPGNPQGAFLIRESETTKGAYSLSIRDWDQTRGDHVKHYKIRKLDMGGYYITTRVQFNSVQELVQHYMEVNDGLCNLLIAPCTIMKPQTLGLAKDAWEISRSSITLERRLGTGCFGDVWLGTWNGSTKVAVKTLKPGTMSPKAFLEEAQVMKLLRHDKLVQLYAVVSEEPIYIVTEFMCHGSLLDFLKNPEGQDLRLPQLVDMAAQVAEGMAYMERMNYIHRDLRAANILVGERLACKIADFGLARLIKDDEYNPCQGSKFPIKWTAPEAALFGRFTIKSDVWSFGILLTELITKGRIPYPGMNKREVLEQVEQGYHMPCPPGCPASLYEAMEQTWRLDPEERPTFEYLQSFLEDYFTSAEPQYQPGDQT
Sequence of Tyrosine-protein kinase BTK (Q06187 whole entry): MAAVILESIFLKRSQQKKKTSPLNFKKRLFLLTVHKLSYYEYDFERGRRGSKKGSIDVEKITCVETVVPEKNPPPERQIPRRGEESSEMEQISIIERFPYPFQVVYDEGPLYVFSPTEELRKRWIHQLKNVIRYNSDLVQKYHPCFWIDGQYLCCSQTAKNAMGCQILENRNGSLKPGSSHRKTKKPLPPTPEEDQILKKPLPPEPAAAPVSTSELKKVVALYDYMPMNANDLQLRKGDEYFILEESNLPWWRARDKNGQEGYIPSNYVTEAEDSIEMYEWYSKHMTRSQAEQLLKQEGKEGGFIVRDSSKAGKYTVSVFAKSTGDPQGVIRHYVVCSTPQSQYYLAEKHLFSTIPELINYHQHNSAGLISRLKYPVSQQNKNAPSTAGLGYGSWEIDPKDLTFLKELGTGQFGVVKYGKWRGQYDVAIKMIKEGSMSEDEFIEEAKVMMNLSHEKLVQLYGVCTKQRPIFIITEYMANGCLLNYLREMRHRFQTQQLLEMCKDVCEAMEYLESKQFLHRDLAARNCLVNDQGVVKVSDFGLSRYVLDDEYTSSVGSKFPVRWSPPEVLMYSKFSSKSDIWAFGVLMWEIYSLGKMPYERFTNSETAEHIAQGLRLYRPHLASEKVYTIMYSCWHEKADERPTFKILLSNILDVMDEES
Sequence of Tyrosine-protein kinase JAK2 (O60674 whole entry): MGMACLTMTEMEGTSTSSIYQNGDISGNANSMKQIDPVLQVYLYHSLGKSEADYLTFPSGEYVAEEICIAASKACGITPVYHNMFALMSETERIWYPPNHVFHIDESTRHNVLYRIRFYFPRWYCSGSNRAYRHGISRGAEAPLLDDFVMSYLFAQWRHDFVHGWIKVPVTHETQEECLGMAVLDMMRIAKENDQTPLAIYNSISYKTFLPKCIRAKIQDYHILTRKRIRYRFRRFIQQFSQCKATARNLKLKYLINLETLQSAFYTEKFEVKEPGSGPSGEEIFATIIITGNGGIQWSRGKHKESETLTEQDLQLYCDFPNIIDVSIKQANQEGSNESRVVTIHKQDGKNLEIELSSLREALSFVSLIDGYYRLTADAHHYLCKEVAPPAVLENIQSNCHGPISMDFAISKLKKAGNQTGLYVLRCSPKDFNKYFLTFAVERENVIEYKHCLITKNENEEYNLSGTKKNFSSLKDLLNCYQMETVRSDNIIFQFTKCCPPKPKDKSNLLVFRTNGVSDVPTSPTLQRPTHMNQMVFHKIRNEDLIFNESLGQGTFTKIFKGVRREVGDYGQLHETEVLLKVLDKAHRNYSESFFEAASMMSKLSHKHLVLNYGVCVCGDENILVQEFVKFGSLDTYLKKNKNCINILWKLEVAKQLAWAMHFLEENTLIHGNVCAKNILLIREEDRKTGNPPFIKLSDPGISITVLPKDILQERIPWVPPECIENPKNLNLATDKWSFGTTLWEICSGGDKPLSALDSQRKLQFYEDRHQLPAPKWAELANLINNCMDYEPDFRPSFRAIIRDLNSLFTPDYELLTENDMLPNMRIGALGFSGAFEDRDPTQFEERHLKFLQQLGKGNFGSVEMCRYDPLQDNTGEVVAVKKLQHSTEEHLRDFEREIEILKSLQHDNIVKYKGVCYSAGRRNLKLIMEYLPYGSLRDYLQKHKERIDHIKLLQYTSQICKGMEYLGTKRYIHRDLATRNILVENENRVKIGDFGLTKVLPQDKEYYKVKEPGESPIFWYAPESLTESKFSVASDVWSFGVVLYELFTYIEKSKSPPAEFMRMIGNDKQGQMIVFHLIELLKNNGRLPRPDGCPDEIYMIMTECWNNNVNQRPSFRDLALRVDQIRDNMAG
Sequence of Cytoplasmic tyrosine-protein kinase BMX (P51813 whole entry): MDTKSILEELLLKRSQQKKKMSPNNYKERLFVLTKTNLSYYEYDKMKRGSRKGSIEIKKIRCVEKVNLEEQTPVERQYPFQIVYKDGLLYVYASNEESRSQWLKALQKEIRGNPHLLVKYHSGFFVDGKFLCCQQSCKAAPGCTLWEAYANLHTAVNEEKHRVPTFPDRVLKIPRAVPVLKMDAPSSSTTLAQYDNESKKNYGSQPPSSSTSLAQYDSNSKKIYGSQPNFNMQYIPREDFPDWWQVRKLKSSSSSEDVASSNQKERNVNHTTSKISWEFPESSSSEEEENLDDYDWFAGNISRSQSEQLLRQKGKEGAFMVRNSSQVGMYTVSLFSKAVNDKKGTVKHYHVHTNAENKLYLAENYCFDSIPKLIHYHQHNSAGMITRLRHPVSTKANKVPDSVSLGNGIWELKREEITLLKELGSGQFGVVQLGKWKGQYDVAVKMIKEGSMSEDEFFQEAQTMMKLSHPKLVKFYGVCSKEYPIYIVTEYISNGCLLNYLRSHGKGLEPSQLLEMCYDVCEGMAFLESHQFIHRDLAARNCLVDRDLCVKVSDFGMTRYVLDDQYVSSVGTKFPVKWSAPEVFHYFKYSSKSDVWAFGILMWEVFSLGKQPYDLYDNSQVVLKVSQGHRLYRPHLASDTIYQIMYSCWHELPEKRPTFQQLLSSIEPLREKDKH
Sequence of Serine/threonine-protein kinase Nek2 (P51955 whole entry): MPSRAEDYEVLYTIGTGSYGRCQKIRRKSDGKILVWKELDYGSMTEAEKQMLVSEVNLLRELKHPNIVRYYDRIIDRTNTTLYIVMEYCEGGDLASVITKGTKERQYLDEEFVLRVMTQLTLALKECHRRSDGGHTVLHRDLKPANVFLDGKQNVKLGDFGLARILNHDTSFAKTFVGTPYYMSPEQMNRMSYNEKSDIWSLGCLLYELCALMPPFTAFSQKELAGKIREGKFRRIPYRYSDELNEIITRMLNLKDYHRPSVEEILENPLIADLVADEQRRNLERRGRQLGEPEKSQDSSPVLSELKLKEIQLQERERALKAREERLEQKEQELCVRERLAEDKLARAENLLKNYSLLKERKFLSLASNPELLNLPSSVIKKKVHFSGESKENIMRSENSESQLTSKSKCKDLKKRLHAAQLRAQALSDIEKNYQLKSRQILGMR

IC50 [1]: 220 nM
Ratio IC50 (Homo sapiens [2]): 114
Ratio IC50 (Homo sapiens [3]): 2.1
Ratio IC50 (Homo sapiens [4]): > 280
Ratio IC50 (Homo sapiens [5]): 5.5
Ratio IC50 (Homo sapiens [6]): 3.7
IC50 [7]: 133 nM
IC50 [8]: 88.6 nM
IC50 [9]: 35.7 nM
Ratio IC50 (Homo sapiens [10]): 2.5
Ratio IC50 (Homo sapiens [11]): > 280
Ratio IC50 (Homo sapiens [12]): 5.3
Ratio IC50 (Homo sapiens [13]): 1.6
IC50 [14]: 5910 nM
IC50 [15]: 76.4 nM
IC50 (A549): 4150 nM
IC50 [16]: 430 nM
IC50 [17]: 3280 nM
Ratio IC50 (Homo sapiens [18]): 5.6
IC50 [19]: > 10000 nM
IC50 [20]: 802 nM
Ratio IC50 (Homo sapiens [21]): 5.9
IC50 [22]: > 10000 nM
Ratio IC50 (Homo sapiens [23]): > 280
IC50 [24]: 189 nM
Ratio IC50 (Homo sapiens [25]): 12
IC50 [26]: > 10000 nM
Ratio IC50 (Homo sapiens [27]): > 280
Structure (SMILES): C=CS(=O)(=O)N1CCC[C@@H]1Cn1cc(-c2ccc3c(c2)OCO3)c2c(N)ncnc21
inhibition in vivo at 25 mg/kg (NCI-H1975): 73.9%
Activity (Mus musculus): Non-Toxic
